Experiment [1] has as its system HCV replicon (BB7 sequence) in Huh-7-Clone A cells. Nature of the experiment: HCV replicon assay: ELISA of NS5A protein in replicon-containing cells (Inhibition of Viral RNA Replication). It is filed as cell-based. The note with it: Hepatitis C virus; Huh-7-Clone A, NS5A ELISA, 72-hour incubation; ranges of EC50; read-out: Replicon. The text has this: Antiviral activity of representative compounds of the invention was first evaluated in a human liver-derived cell line (Huh-7-Clone A) containing the HCV replicon (BB7 sequence) (See Lohmann et al. Science. 1999, 285:110-3; Blight K J et al., Science. 2000, 290:1972-4; Pietschmann, T. et al., J. Virol. 2001, 73:1252-1264; and Lohmann, V. et al., J. Virol. 2001, 75:1437-1449). The HCV replicon is a subgenomic viral RNA that expresses the HCV proteins required for its own replication. These proteins include non-structural proteins NS3, NS4A, NS4B, NS5A and NS5B. The replicon also contains a foreign gene encoding a drug-selectable marker (neomycin phosphotransferase) to allow for G418 (neomycin) selection of cells that contain the replicon.
An ELISA (enzyme-linked immunosorbant assay) was used to determine the effect of compounds within the scope of the invention on the amount of HCV NS5A protein produced after a 72-hour incubation of the replicon-containing cells in the presence of varying concentrations of compound. COSTAR® 96-well cell culture plates were used but other known cell culture plates may be used. After incubation, media is removed from wells and the cells are fixed to the assay plate using 0.05% glutaraldehyde. The glutaraldehyde is then washed off using phosphate-buffered saline (PBS) following a 1 hour incubation and cells are blocked for non-specific antibody binding using for example SUPERBLOCK® reagent (blocking buffer) in PBS. The blocking agent is rinsed from the cells with PBS after 1 hour at 37° C. and primary monoclonal antibody is added to each well containing compound. Primary antibody is incubated for 1 hour at 37° C. and rinsed 3 times with PBS containing 0.02% TWEEN-20™ before addition of Horseradish Peroxidase (HRP) conjugated secondary antibody. HRP is incubated for 1 hour at 37° C. and rinsed several times, first with PBS/TWEEN-20™ followed by PBS alone. To quantify peroxidase activity, 3,3′,5, 5′-tetramethylbenzidine (TMB) substrate is added to the plate and after 30 minutes, the plates are read in an ELISA plate reader at an OD of 650 nm. Compound dose response was measured in an 8-point dose curve diluted serially to determine the inhibitory concentration at 50% (EC50 value). […] Ranges of 50% effective concentrations (EC50s) for representative compounds within the scope of this invention are listed in Table 1. Preferred compounds have 50% effective concentrations at about 30 μM or less, more preferred compounds have 50% effective concentrations at about 5 μM or less, and most preferred compounds have 50% effective concentrations at about 0.5 μM or less.
A general note: A replicon is a self-replicating genome or part of one, used to study replication in cells.

Experiment [2] deals with T1, HCV NS5B (Hepatitis C virus genotype 1b, UniProt Q9WMX2).
T1 construct: fusion protein, of which the carboxyl terminal 21 amino acids were removed to enhance its solubility; His tag (GSHHHHHH); made in house; host or cells: E. coli
Nature of the experiment: Inhibition of viral RNA-dependent RNA polymerase (RdRp), in vitro biochemical assay. Further details: species or system HCV genotype 1b virus (BB7). The note with it: purified His-tagged NS5B (BB7), carboxyl terminal 21 amino acids removed; read-out: HCV pol-BB7 IC50. From the text: The HCV NS5B-directed RdRp activity was established and characterized in a standard in vitro biochemical assay using a purified HCV NS5B protein derived from the consensus sequence of a patient infected with HCV genotype 1b virus (BB7). (See Blight K J et al., Science. 2000, 290:1972-4). The NS5B consensus sequence was cloned and expressed in E. coli as a histidine tagged (GSHHHHHH) fusion protein, of which the carboxyl terminal 21 amino acids were removed to enhance its solubility.
In addition to evaluating their activity in the replicon assay, representative compounds within the scope of the present invention, as shown in examples 1-453 of Table 1, were also evaluated for antiviral activity using this assay. A measure of the inhibitory activity of compounds of the invention may be expressed as IC50 values. IC50 values represent the concentration of the compound at which 50% of the RdRp activity is inhibited. […] These low concentrations of test compounds required to achieve 50% inhibition of the RdRp activity indicate that the compounds of the invention are effective at inhibiting RNA synthesis by viral RdRp enzymes.

The structures appear in SMILES notation. Bounds are passed on as bounds.

As usually defined, the IC50 is the point on the concentration scale where inhibition reaches its midpoint.

`CNC(=O)c1c(-c2ccc(F)cc2)oc2cc(Br)c(OC)cc12` [Example 13, 6-Bromo-2-(4-fluoro-phenyl)-5-methoxy-benzofuran-3-carboxylic acid methylamide]: the EC50 in experiment [1] is < 1000 nM. In addition, the IC50 in experiment [2] is ≤ 500 nM.
Take `CNC(=O)c1c(-c2ccccc2)oc2cc(C)c(OC)cc12` [Example 14, 5-Methoxy-6-methyl-2-phenyl-benzofuran-3-carboxylic acid methylamide]: in experiment [1], the EC50 is < 1000 nM. The IC50 in experiment [2] is ≤ 500 nM.
For the compound `CNC(=O)c1c(-c2ccc(F)cc2)oc2cc(N)c(OC(C)C)cc12` [Example 16, 6-Amino-2-(4-fluoro-phenyl)-5-isopropoxy-benzofuran-3-carboxylic acid methylamide], in experiment [1], the EC50 is < 10000 nM. Also, in experiment [2], the IC50 was ≤ 500 nM.
The corresponding values for `CNC(=O)c1c(-c2ccc(F)cc2)oc2cc(N)c(OC)cc12` [Example 17, 6-Amino-2-(4-fluoro-phenyl)-5-methoxy-benzofuran-3-carboxylic acid methylamide] are < 10000 nM and 500 to 5000 nM.
Take `CNC(=O)c1c(-c2ccc(F)cc2)oc2cc(NC(C)=O)c(OC)cc12` [Example 18, 6-Acetylamino-2-(4-fluoro-phenyl)-5-methoxy-benzofuran-3-carboxylic acid methylamide]: the EC50 in experiment [1] is < 1000 nM. Also, in experiment [2], the IC50 is ≤ 500 nM.
The corresponding values for `CNC(=O)c1c(-c2ccc(F)cc2)oc2cc(NC)c(OC(C)C)cc12` [Example 19, 2-(4-Fluoro-phenyl)-5-isopropoxy-6-methylamino-benzofuran-3-carboxylic acid methylamide] are < 1000 nM and ≤ 500 nM.
Regarding `CNC(=O)c1c(-c2ccc(F)cc2)oc2cc(N(C)C)c(OC(C)C)cc12` [Example 20, 6-Dimethylamino-2-(4-fluoro-phenyl)-5-isopropoxy-benzofuran-3-carboxylic acid methylamide], the EC50 in experiment [1] is < 1000 nM. The IC50 in experiment [2] is ≤ 500 nM.
`CNC(=O)c1c(-c2ccc(F)cc2)oc2cc(NS(C)(=O)=O)c(OC(C)C)cc12` [Example 21, 2-(4-Fluoro-phenyl)-5-isopropoxy-6-methanesulfonylamino-benzofuran-3-carboxylic acid methylamide]: the EC50 in experiment [1] is < 1000 nM. The IC50 in experiment [2] is ≤ 500 nM.
The corresponding values for `CCNc1cc2oc(-c3ccc(F)cc3)c(C(=O)NC)c2cc1OC(C)C` [Example 22, 6-Ethylamino-2-(4-fluoro-phenyl)-5-isopropoxy-benzofuran-3-carboxylic acid methylamide] are < 1000 nM and ≤ 500 nM.
The corresponding values for `CCN(CC)c1cc2oc(-c3ccc(F)cc3)c(C(=O)NC)c2cc1OC(C)C` [Example 23, 6-Diethylamino-2-(4-fluoro-phenyl)-5-isopropoxy-benzofuran-3-carboxylic acid methylamide] are < 1000 nM and ≤ 500 nM.
Take `CNC(=O)c1c(-c2ccc(F)cc2)oc2cc(N3CCOCC3)c(OC(C)C)cc12` [Example 24, 2-(4-Fluoro-phenyl)-5-isopropoxy-6-morpholin-4-yl-benzofuran-3-carboxylic acid methylamide]: in experiment [1], the EC50 is < 1000 nM. Moreover, in experiment [2], the IC50 was ≤ 500 nM.
Regarding `CNC(=O)c1c(-c2ccccc2)oc2ccc(OC)c(C)c12` [Example 25, 5-Methoxy-4-methyl-2-phenyl-benzofuran-3-carboxylic acid methylamide], in experiment [1], the EC50 was > 30000 nM. The IC50 in experiment [2] was > 30000 nM.
Consider `CNC(=O)c1c(-c2ccccc2)oc2ccc(C#N)cc12` [Example 26, 5-Cyano-2-phenyl-benzofuran-3-carboxylic acid methylamide], for which the EC50 in experiment [1] is < 30000 nM. In addition, in experiment [2], the IC50 was 5000 to 30000 nM.
As for `CNC(=O)c1c(-c2ccncc2)oc2ccc(OC(C)C)cc12` [Example 27, 5-Isopropoxy-2-pyridin-4-yl-benzofuran-3-carboxylic acid methylamide], the EC50 in experiment [1] is > 30000 nM. In experiment [2], the IC50 lay within 5000 to 30000 nM.
The corresponding values for `CNC(=O)c1c(-c2ccc(F)cc2)oc2cc(-c3c(C)noc3C)c(OC)cc12` [Example 28, 6-(3,5-Dimethyl-isoxazol-4-yl)-2-(4-fluoro-phenyl)-5-methoxy-benzofuran-3-carboxylic acid methylamide] are < 1000 nM and ≤ 500 nM.
The corresponding values for `CNC(=O)c1c(-c2ccc(F)cc2)oc2cc(N(C)S(C)(=O)=O)c(OC)cc12` [Example 29, 2-(4-Fluoro-phenyl)-6-(methanesulfonyl-methyl-amino)-5-methoxy-benzofuran-3-carboxylic acid methylamide] are < 1000 nM and ≤ 500 nM.
On to `CNC(=O)c1c(-c2ccc(F)cc2)oc2cc(N3CCOCC3)c(OCc3ccc(OC)cc3)cc12` [Example 30, 2-(4-Fluoro-phenyl)-5-(4-methoxy-benzyloxy)-6-morpholin-4-yl-benzofuran-3-carboxylic acid methylamide], for which, in experiment [1], the EC50 is < 1000 nM. In experiment [2], the IC50 is ≤ 500 nM.
As for `CNC(=O)c1c(-c2ccc(F)cc2)oc2cc(N(Cc3ccc(OC)cc3)S(C)(=O)=O)c(OCc3ccc(OC)cc3)cc12` [Example 31, 2-(4-Fluoro-phenyl)-6-[methanesulfonyl-(4-methoxy-benzyl)-amino]-5-(4-methoxy-benzyloxy)-benzofuran-3-carboxylic acid methylamide], the EC50 in experiment [1] is < 1000 nM. In addition, the half-inhibitory concentration (IC50) in experiment [2] was ≤ 500 nM.
The corresponding values for `CCOc1cc2c(C(=O)NC)c(-c3ccc(F)cc3)oc2cc1N(CC)S(C)(=O)=O` [Example 32, 5-Ethoxy-6-(ethyl-methanesulfonyl-amino)-2-(4-fluoro-phenyl)-benzofuran-3-carboxylic acid methylamide] are < 1000 nM and ≤ 500 nM.
On to `CNC(=O)c1c(-c2ccc(F)cc2)oc2cc(N3CCOCC3)c(OCc3nccs3)cc12` [Example 33, 2-(4-Fluoro-phenyl)-6-morpholin-4-yl-5-(thiazol-2-ylmethoxy)-benzofuran-3-carboxylic acid methylamide], for which the EC50 in experiment [1] is < 1000 nM. Besides, in experiment [2], the IC50 was ≤ 500 nM.
The corresponding values for `CNC(=O)c1c(-c2ccc(F)cc2)oc2cc(N(CC(C)=O)S(C)(=O)=O)c(OC(C)C)cc12` [Example 34, 2-(4-Fluoro-phenyl)-5-isopropoxy-6-[methanesulfonyl-(2-oxo-propyl)-amino]-benzofuran-3-carboxylic acid methylamide] are < 1000 nM and ≤ 500 nM.
`CNC(=O)c1c(-c2ccc(F)cc2)oc2cc(N3CCOCC3)c(OCc3cscn3)cc12` [Example 35, 2-(4-Fluoro-phenyl)-6-morpholin-4-yI-5-(thiazol-4-ylmethoxy)-benzofuran-3-carboxylic acid methylamide]: in experiment [1], the EC50 was < 1000 nM. In experiment [2], the IC50 is ≤ 500 nM.
Regarding `CNC(=O)c1c(-c2ccc(F)cc2)oc2cc(N(Cc3cscn3)S(C)(=O)=O)c(OC(C)C)cc12` [Example 36, 2-(4-Fluoro-phenyl)-5-isopropoxy-6-(methanesulfonyl-thiazol-4-ylmethyl-amino)-benzofuran-3-carboxylic acid methylamide], the EC50 in experiment [1] is < 1000 nM. Also, in experiment [2], the IC50 was ≤ 500 nM.
